The values that follow come from ChEMBL document CHEMBL4665719, “Development of SKI-349, a dual-targeted inhibitor of sphingosine kinase and microtubule polymerization” (Bioorg Med Chem Lett, 2020).

A word on the IC50: it is the point on the concentration scale where inhibition reaches its midpoint.

Data set [1] is described as follows: Toxicity in sub-lethal irradiated C57BL/6J mouse xenografted with […] MLL-AF9 cells assessed as Hb level at 5 mg/kg measured after 2 weeks (reference value: 13.4 +/- 0.5 g/dl). Format: organism-based. The note with it: in vivo, 336 h. (In general: Xenograft models place foreign cells or tissue in a host animal.)
The target in data set [2] is Cyclin-dependent kinase 1 (Homo sapiens) (UniProt P06493). Kind of data set: Activation of CDK1 in human HL-60 cells assessed as activation of caspase 7 at 300 nM after 24 hrs in presence of Ro-3306 by Western blot analysis. Format: cell-based. (Immunoblotting shows a protein as a band on a membrane.)
The target is the same in data set [3]. Description: Activation of CDK1 in human HL60/VCR cells assessed as activation of caspase 7 at 300 nM after 24 hrs in presence of Ro-3306 by Western blot analysis. Format: cell-based.
Data set [4] in a line: Effect on hematopoiesis in sub-lethal irradiated C57BL/6J mouse xenografted with […] MLL-AF9 cells assessed as CD45.1+/CD34 cells in bone marrow at 2.5 mg/kg measured after 6 weeks by flow cytometry analysis (reference value: 93 %). In kind it is ADME, organism-based. The note with it: in vivo, 1008 h.
Data set [5] is described as follows: Effect on hematopoiesis in sub-lethal irradiated C57BL/6J mouse xenografted with […] MLL-AF9 cells assessed as CD45.1+/CD34 cells in bone marrow at 5 mg/kg measured after 6 weeks by flow cytometry analysis (reference value: 93 %). In kind it is ADME, organism-based. The note with it: in vivo, 1008 h.
In data set [6] the target is Cyclin-dependent kinase 1 (Homo sapiens) (UniProt P06493). Description: Activation of CDK1 in human HL-60 cells assessed as activation of caspase 7 at 300 nM after 24 hrs by Western blot analysis. In kind it is cell-based. The note with it: filed as activator.
Data set [7] addresses T1, Sphingosine kinase 1/2 (Homo sapiens) (UniProt Q9NRA0+Q9NYA1). Kind of data set: Inhibition of SPHK1/SPHK2 in human HL-60 cells assessed as sphingosine-1-phosphate level assessed per 10^6 cells at 500 nM after 24 hrs by LC-ESI/MS analysis (reference value: 3.1 +/- 0.3 pmol). In kind it is cell-based.
The target of data set [8] is T1, Sphingosine kinase 1/2 (Homo sapiens). Kind of data set: Inhibition of SPHK1/SPHK2 in human HL-60 cells assessed as induction of apoptosis by measuring spindle assembly checkpoint arrest at 1 uM after 16 hrs by Western blot analysis. In kind it is cell-based.
Data set [9] has as its target Non-receptor tyrosine-protein kinase TYK2 (Homo sapiens) (UniProt P29597). Description: Inhibition of wild-type human partial length TYK2 JH2 pseudokinase domain (G556 to D888 residues) expressed in mammalian expression system assessed as residual activity at 1 uM by Kinomescan method relative to control.
Data set [10] addresses Cyclin-dependent kinase 1 (Homo sapiens) (UniProt P06493). Description: Activation of CDK1 in human HL60/VCR cells assessed as activation of caspase 7 at 300 nM after 24 hrs by Western blot analysis. Format: cell-based. Particulars: filed as activator.
The subject of data set [11] is MLL-AF9. Description: Antitumor activity against human MLL-AF9 xenografted in sub-lethal irradiated C57BL/6J mouse assessed as increase in mouse survival at 1 to 5 mg/kg administered every day. Format: functional, organism-based. The note with it: dose mg/kg 1-5.
Data set [12] concerns the target Cyclin-dependent kinase 1 (Homo sapiens) (UniProt P06493). Description: Activation of CDK1 in human HL-60 cells assessed as induction of Bcl2 phosphorylation at Ser70 residue at 300 nM after 24 hrs by Western blot analysis. The note with it: filed as activator. In kind it is cell-based.
The target in data set [13] is T2, Sphingosine kinase 1 (Homo sapiens, UniProt Q9NYA1). Kind of data set: Binding affinity to SphK1 in HEK293 cells assessed as induction of thermal stabilization at 1 uM and 51 to 63.2 degreeC by CETSA-based Western blot analysis. Format: cell-based.
Data set [14] in a line: Cytotoxicity against human HL60/VCR cells assessed as reduction in cell viability after 48 hrs by MTT assay. In kind it is functional, cell-based. A general note: Formazan colour is commonly taken as a measure of viable cells.
Data set [15] deals with T1, Sphingosine kinase 1/2 (Homo sapiens). Kind of data set: Inhibition of SPHK1/SPHK2 in human HL-60 cells assessed as C16:0 ceramide level assessed per 10^6 cells at 500 nM after 24 hrs by LC-ESI/MS analysis (reference value: 33.5 +/- 4.1 pmol). Format: cell-based.
For data set [16], the target named is T2, Sphingosine kinase 1. Kind of data set: Binding affinity to SphK1 in HEK293 cells assessed as direct target engagement incubated for 24 hrs followed by thermal denaturation at 61 degreeC by ITDRF-CETSA assay. In kind it is cell-based.
Data set [17] is described as follows: Toxicity in sub-lethal irradiated C57BL/6J mouse xenografted with […] MLL-AF9 cells assessed as RBC level at 1 mg/kg measured after 2 weeks (reference value: 9.8 +/- 0.3 10^6/ml). In kind it is organism-based. Particulars: in vivo, 336 h.
Data set [18] is described as follows: Toxicity in sub-lethal irradiated C57BL/6J mouse xenografted with […] MLL-AF9 cells assessed as WBC level at 1 mg/kg measured after 2 weeks (reference value: 6.5 +/- 0.4 10^3/ml). In kind it is organism-based. The note with it: in vivo, 336 h.
Data set [19] deals with T3, Sphingosine kinase 2 (Homo sapiens) (UniProt Q9NRA0).
T3 sequence (whole entry): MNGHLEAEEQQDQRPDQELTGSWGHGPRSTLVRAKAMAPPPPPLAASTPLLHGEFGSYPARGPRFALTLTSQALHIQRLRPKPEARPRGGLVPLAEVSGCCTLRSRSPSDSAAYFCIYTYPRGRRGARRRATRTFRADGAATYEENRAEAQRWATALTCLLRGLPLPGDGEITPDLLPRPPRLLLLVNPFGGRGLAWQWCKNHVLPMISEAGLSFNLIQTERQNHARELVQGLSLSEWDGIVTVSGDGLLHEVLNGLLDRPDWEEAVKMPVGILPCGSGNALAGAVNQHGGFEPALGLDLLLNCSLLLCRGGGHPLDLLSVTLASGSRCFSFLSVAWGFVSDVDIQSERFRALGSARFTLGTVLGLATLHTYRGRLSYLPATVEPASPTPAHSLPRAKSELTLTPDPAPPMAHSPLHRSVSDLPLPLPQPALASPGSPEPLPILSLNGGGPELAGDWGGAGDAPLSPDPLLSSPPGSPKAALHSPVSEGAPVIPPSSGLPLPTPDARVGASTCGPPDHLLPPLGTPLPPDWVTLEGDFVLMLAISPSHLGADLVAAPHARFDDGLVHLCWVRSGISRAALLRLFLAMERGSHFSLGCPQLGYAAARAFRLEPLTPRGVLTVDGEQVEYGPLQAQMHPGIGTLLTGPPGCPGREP
Description: Binding affinity to SphK2 in HEK293 cells assessed as induction of thermal stabilization at 1 uM and 48.8 to 68.2 degreeC by CETSA-based Western blot analysis. Format: cell-based.

The target in data set [20] is Cyclin-dependent kinase 1 (Homo sapiens) (UniProt P06493). Kind of data set: Activation of CDK1 in human HL60/VCR cells assessed as induction of Bcl2 phosphorylation at Ser70 residue at 300 nM after 24 hrs in presence of Ro-3306 by Western blot analysis. Format: cell-based.
Data set [21] can be described thus: Toxicity in sub-lethal irradiated C57BL/6J mouse xenografted with […] MLL-AF9 cells assessed as Hb level at 1 mg/kg measured after 2 weeks (reference value: 13.4 +/- 0.5 g/dl). Particulars: in vivo, 336 h. In kind it is organism-based.
In data set [22] the target is T4, Sphingosine kinase 2 (Homo sapiens, UniProt Q9NRA0).
T4 sequence (Q9NRA0 whole entry): T3 sequence (whole entry)
Kind of data set: Binding affinity to SphK2 in HEK293 cells assessed as direct target engagement incubated for 24 hrs followed by thermal denaturation at 61 degreeC by ITDRF-CETSA assay. Format: cell-based.

Active and inactive are the calls of the source. The rule behind the calls is not given here.

Chain of Cyclin-dependent kinase 1 (Homo sapiens) (P06493 whole entry, looked up): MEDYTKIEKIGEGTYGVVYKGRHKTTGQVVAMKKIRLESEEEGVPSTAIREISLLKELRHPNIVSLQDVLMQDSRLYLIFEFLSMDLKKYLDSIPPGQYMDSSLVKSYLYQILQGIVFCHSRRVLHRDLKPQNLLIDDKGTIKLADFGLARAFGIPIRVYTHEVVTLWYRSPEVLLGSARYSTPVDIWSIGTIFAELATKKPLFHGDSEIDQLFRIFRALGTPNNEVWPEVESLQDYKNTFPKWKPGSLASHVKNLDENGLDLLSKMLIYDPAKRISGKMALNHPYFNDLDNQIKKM
T1 sequence (Q9NYA1 whole entry, looked up, one chain of several): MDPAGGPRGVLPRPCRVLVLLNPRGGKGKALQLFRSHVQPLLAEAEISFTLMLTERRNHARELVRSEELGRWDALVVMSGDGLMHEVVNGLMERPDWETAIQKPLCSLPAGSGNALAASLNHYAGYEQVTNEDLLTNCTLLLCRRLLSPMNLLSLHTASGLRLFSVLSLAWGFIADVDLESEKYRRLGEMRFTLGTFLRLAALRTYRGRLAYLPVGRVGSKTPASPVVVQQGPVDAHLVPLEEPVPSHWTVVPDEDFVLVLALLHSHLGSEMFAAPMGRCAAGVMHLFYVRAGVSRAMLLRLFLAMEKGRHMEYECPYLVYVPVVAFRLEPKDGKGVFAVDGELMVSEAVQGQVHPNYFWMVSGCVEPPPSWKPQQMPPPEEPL
T2 sequence (Q9NYA1 whole entry): as the sequence (Q9NYA1 whole entry, looked up, one chain of several) above
Chain of Non-receptor tyrosine-protein kinase TYK2 (Homo sapiens) (P29597 whole entry, the tested form may be a part): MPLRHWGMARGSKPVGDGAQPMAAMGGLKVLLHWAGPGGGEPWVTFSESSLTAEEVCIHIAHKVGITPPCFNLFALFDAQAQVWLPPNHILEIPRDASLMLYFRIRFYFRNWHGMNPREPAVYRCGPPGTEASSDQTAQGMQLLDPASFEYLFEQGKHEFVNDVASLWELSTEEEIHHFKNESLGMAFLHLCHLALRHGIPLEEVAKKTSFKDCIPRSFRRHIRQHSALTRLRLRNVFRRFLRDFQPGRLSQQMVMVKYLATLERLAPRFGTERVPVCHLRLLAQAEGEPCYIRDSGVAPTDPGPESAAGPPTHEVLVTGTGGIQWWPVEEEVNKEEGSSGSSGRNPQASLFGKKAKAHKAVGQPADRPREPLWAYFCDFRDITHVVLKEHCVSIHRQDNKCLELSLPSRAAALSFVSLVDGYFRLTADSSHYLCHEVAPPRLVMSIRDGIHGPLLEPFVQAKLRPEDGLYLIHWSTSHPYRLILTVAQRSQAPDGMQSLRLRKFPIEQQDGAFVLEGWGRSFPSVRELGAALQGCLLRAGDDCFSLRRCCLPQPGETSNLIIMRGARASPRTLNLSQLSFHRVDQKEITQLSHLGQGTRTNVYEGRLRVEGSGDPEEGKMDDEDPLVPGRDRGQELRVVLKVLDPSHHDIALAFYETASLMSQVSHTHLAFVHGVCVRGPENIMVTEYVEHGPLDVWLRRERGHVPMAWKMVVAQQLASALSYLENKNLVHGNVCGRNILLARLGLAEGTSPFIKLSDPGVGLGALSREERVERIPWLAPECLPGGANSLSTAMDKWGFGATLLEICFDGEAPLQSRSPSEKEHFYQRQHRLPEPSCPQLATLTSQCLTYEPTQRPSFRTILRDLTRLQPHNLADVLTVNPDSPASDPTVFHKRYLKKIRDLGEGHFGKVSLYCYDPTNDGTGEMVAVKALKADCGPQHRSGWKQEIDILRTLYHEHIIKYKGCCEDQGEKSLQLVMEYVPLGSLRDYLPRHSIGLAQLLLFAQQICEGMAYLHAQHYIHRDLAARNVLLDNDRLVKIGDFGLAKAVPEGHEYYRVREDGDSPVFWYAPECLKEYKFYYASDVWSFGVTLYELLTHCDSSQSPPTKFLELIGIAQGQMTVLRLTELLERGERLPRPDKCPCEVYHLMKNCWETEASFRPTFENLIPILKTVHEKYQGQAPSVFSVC

For `COc1ccc(Nc2nc(N)c(C(=O)c3ccc(OC)c(OC)c3)s2)cc1`, the Activity in [1] amounted to 12 g/dL; in data set [4] it was 7%; in data set [5] it was 7%; in [7], 2.3 pmol; in [9], 14%; in data set [15], 87 pmol. The Activity in [17] was 9.2 10^6/ml; in [18] it was 8.7 10^3/ml; in data set [21] it was 12.8 g/dL. Further, the result in [2], in [3] and in [20] was inactive. For the same molecule, the result in data set [6], in data set [8], in data set [10], in [11], in data set [12] and in data set [13] was Active. Also, the outcome in [19] was Active. Further, the half-inhibitory concentration (IC50) in [14] was 23 nM; in [16] it was 60 nM; in data set [22], 60 nM.
